Source: ChEMBL document CHEMBL3045645, “Organophosphorus derivatives containing isatin-3-hydrazones as chemotherapeutants against fungal pathogens of sugarcane” (2008)
In brackets after ≈: the same amount, converted by molar mass.

Assays:
Assay type in all cases: functional
[1] = test system: Colletotrichum falcatum; test: Ratio of copper oxychloride MIC to compound MIC for Glomerella tucumanensis after 7 days by food poison technique
[2] = test system: Fusarium oxysporum; test: Ratio of carbendazim MIC to compound MIC for Fusarium oxysporum after 7 days by food poison technique
[3] = test system: Fusarium oxysporum; test: Antifungal activity against Fusarium oxysporum assessed as mycelial growth inhibition at 1000 ppm at 28 +/-2 degC after 7 days by food poison technique; settings: 168 h, read-out: GI
[4] = test system: Fusarium oxysporum; test: Antifungal activity against Fusarium oxysporum assessed as mycelial growth inhibition at 100 ppm at 28 +/-2 degC after 7 days by food poison technique; settings: 168 h, read-out: GI
[5] = test system: Fusarium oxysporum; test: Antifungal activity against Fusarium oxysporum assessed as mycelial growth inhibition at 10 ppm at 28 +/-2 degC after 7 days by food poison technique; settings: 168 h, read-out: GI
[6] = test system: Fusarium oxysporum; test: Ratio of thiophanate MIC to compound MIC for Fusarium oxysporum after 7 days by food poison technique
[7] = test system: Fusarium oxysporum; test: Ratio of copper oxychloride MIC to compound MIC for Fusarium oxysporum after 7 days by food poison technique
[8] = test system: Curvularia pallescens; test: Ratio of mancozeb MIC to compound MIC for Cochliobolus pallescens after 7 days by food poison technique
[9] = test system: Colletotrichum falcatum; test: Antifungal activity against Glomerella tucumanensis assessed as mycelial growth inhibition at 1000 ppm at 28 +/-2 degC after 7 days by food poison technique; settings: 168 h, read-out: GI
[10] = test system: Colletotrichum falcatum; test: Antifungal activity against Glomerella tucumanensis assessed as mycelial growth inhibition at 28 +/-2 degC after 7 days by food poison technique; settings: 168 h
[11] = test system: Fusarium oxysporum; test: Ratio of mancozeb MIC to compound MIC for Fusarium oxysporum after 7 days by food poison technique
[12] = test system: Colletotrichum falcatum; test: Ratio of thiophanate MIC to compound MIC for Glomerella tucumanensis after 7 days by food poison technique
[13] = test system: Curvularia pallescens; test: Antifungal activity against Cochliobolus pallescens assessed as mycelial growth inhibition at 28 +/-2 degC after 7 days by food poison technique; settings: 168 h
[14] = test system: Colletotrichum falcatum; test: Antifungal activity against Glomerella tucumanensis assessed as mycelial growth inhibition at 100 ppm at 28 +/-2 degC after 7 days by food poison technique; settings: 168 h, read-out: GI
[15] = test system: Curvularia pallescens; test: Antifungal activity against Cochliobolus pallescens assessed as mycelial growth inhibition at 1000 ppm at 28 +/-2 degC after 7 days by food poison technique; settings: 168 h, read-out: GI
[16] = test system: Curvularia pallescens; test: Antifungal activity against Cochliobolus pallescens assessed as mycelial growth inhibition at 100 ppm at 28 +/-2 degC after 7 days by food poison technique; settings: 168 h, read-out: GI
[17] = test system: Curvularia pallescens; test: Ratio of thiophanate MIC to compound MIC for Cochliobolus pallescens after 7 days by food poison technique
[18] = test system: Curvularia pallescens; test: Antifungal activity against Cochliobolus pallescens assessed as mycelial growth inhibition at 10 ppm at 28 +/-2 degC after 7 days by food poison technique; settings: 168 h, read-out: GI
[19] = test system: Colletotrichum falcatum; test: Ratio of carbendazim MIC to compound MIC for Glomerella tucumanensis after 7 days by food poison technique
[20] = test system: Colletotrichum falcatum; test: Ratio of mancozeb MIC to compound MIC for Glomerella tucumanensis after 7 days by food poison technique
[21] = test system: Fusarium oxysporum; test: Antifungal activity against Fusarium oxysporum assessed as mycelial growth inhibition at 28 +/-2 degC after 7 days by food poison technique; settings: 168 h
[22] = test system: Curvularia pallescens; test: Ratio of copper oxychloride MIC to compound MIC for Cochliobolus pallescens after 7 days by food poison technique
[23] = test system: Colletotrichum falcatum; test: Antifungal activity against Glomerella tucumanensis assessed as mycelial growth inhibition at 10 ppm at 28 +/-2 degC after 7 days by food poison technique; settings: 168 h, read-out: GI
[24] = test system: Curvularia pallescens; test: Ratio of carbendazim MIC to compound MIC for Cochliobolus pallescens after 7 days by food poison technique

CCOP(=S)(OCC)O/C(COc1ccc(Cl)cc1)=N\N=C1/C(=O)Nc2ccccc21
Ratio [1]: 2 | Ratio [2]: 2 | inhibition of growth at 1000 ppm [3]: 100% | inhibition of growth at 100 ppm [4]: 89.2% | inhibition of growth at 10 ppm [5]: 80% | Ratio [6]: 2 | Ratio [7]: 2 | Ratio [8]: 2 | inhibition of growth at 1000 ppm [9]: 100% | MIC [10]: 1000 µg/mL (≈ 2080 µM) | Ratio [11]: 2 | Ratio [12]: 2 | MIC [13]: 1000 µg/mL (≈ 2080 µM) | inhibition of growth at 100 ppm [14]: 90.2% | inhibition of growth at 1000 ppm [15]: 100% | inhibition of growth at 100 ppm [16]: 84.8% | Ratio [17]: 2 | inhibition of growth at 10 ppm [18]: 78.2% | Ratio [19]: 2 | Ratio [20]: 2 | MIC [21]: 1000 µg/mL (≈ 2080 µM) | Ratio [22]: 2 | inhibition of growth at 10 ppm [23]: 80.5% | Ratio [24]: 2
